We go through two molecules from patent US10398723B1, “Hyaluronan-containing composition and use thereof for mitigation and/or prevention of inflammation and/or pain” (Viscos, LLC, priority 2015, dated 2019).

The test concerns whole blood culture. The experiment in a line: inflammatory cell activation (CD69, CD25 expression) in whole blood culture. The class given is cell-based. Particulars: samples from human subjects; 0.006 mg/mL, 0.05 g/mL or 0.4 mg/mL in culture medium; dose-dependent. As to the method: A dose of 0.006 mg/mL, […] or 0.4 mg/mL (concentration of formulation in culture medium) was employed, but any dose less than 0.006 mg/mL or greater than 0.4 mg/mL or between 0.006 mg/mL and 0.4 mg/mL (concentration of formulation in any diluent) is likewise within the scope of this disclosure. […] Activation of inflammatory cells was measured, and is verified by assays known in the art, by expression of CD69, a protein expressed on activated white blood cells including T lymphocytes, NK cells, monocytes and PMN cells. Activation of inflammatory cells was measured, and is verified by assays known in the art, by expression of CD25, the alpha chain of the low affinity interleukin-2 (IL-2) receptor. […] An increase such as that observed in this Example may be, by way of example and not of limitation, of at least about 1%, or of at least about 2%, or of at least about 5%, or of at least about 10%, or of at least about 20%, or of at least about 30%, or of at least about 40%, or of at least about 50%, or of at least about 60%, or of at least about 70%, or of at least about 80%, or of at least about 90%. A statistically significant decrease is a function of sample size and variability. […]

As for `CS(C)(=O)=O` [MSM, methylsulfonylmethane], the inflammatory cell activation result is recorded as “decrease”.
As to Hyaluronan [HA], the inflammatory cell activation result is listed as “decrease”.
